Measured values taken from US20240381872A1, “SUBSTITUTED 2,3-DIHYDRO[1,3]THIAZOLO[4,5-B]PYRIDINES, SALTS THEREOF AND THEIR USE AS HERBICIDALLY ACTIVE SUBSTANCES” (BAYER AKTIENGESELLSCHAFT, priority 2021, published 2024).

What was measured:
Type in all cases: in vivo
[1] = system: Matricaria inodora (MATIN); test: Herbicidal pre-emergence action, section A (Table A6); conditions: Tripleurospermum inodorum, pre-emergence, 504 h; application rate 1280 g/ha; visual grading after ca. 3 weeks vs untreated controls; read-out: pre-emergence activity against MATIN in %
Summary of the method: (§1)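 Double sowings in sandy loam; soil-surface spray of WP/EC aqueous preparations, 0.5% additive, 600 l/ha water. Greenhouse, optimum conditions. Visual % damage at ~3 wk vs untreated (100% = dead, 0% = control-like).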

Veronica persica (VERPE) [2] = test: Herbicidal pre-emergence action, section A (Table A10); conditions: Veronica persica, 504 h, application rate 320 g/ha, read-out: pre-emergence activity against VERPE in %
Summary of the method: as §1

Stellaria media (STEME) [3] = test: Herbicidal post-emergence action, section B (Table B9); conditions: Stellaria media, post-emergence, 504 h; application rate 1280 g/ha; visual rating about 3 weeks after treatment vs untreated controls; read-out: post-emergence activity against STEME in %
Summary of the method: (§2)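 In this greenhouse assay, compounds in WP or EC form were applied post-emergence with 0.5% additive at a water rate of 600 liters per hectare. Treatment took place at the one-leaf stage, and injury was rated visually about 3 weeks later against untreated plants.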

Lolium rigidum (LOLRI) [4] = test: Herbicidal pre-emergence action, section A (Table A5); conditions: Lolium rigidum, pre-emergence, 504 h, visual grading after ca. 3 weeks vs untreated controls, read-out: pre-emergence activity against LOLRI in %
Summary of the method: as §1

Setaria viridis (SETVI) [5] = test: Herbicidal pre-emergence action, section A (Table A8); conditions: Setaria viridis, 504 h, read-out: pre-emergence activity against SETVI in %
Summary of the method: as §1

[6] = system: Amaranthus retroflexus (AMARE); test: Herbicidal pre-emergence action, section A (Table A11); conditions: Amaranthus retroflexus, 504 h, read-out: pre-emergence activity against AMARE in %
Summary of the method: as §1

Kochia scoparia (KCHSC) [7] = test: Herbicidal post-emergence action, section B (Table B4); conditions: Bassia scoparia, post-emergence, 504 h; application rate 1280 g/ha; visual rating about 3 weeks after treatment vs untreated controls; read-out: post-emergence activity against KCHSC in %
Summary of the method: as §2

Veronica persica (VERPE) [8] = test: Herbicidal post-emergence action, section B (Table B10); conditions: Veronica persica, post-emergence, 504 h, visual rating about 3 weeks after treatment vs untreated controls, read-out: post-emergence activity against VERPE in %
Summary of the method: as §2

Poa annua (POAAN) [9] = test: Herbicidal post-emergence action, section B (Table B7); conditions: Poa annua, post-emergence, 504 h, visual rating about 3 weeks after treatment vs untreated controls, read-out: post-emergence activity against POAAN in %
Summary of the method: as §2

[10] = system: Echinochloa crus-galli (ECHCG); test: Herbicidal pre-emergence action, section A (Table A3); conditions: Echinochloa crus-galli, pre-emergence, 504 h, visual grading after ca. 3 weeks vs untreated controls, read-out: pre-emergence activity against ECHCG in %
Summary of the method: as §1

Kochia scoparia (KCHSC) [11] = test: Herbicidal pre-emergence action, section A (Table A4); conditions: Bassia scoparia, pre-emergence, 504 h, visual grading after ca. 3 weeks vs untreated controls, read-out: pre-emergence activity against KCHSC in %
Summary of the method: as §1

Stellaria media (STEME) [12] = test: Herbicidal pre-emergence action, section A (Table A9); conditions: Stellaria media, 504 h, application rate 320 g/ha, read-out: pre-emergence activity against STEME in %
Summary of the method: as §1

[13] = system: Echinochloa crus-galli (ECHCG); test: Herbicidal post-emergence action, section B (Table B3); conditions: Echinochloa crus-galli, 504 h, rated visually after about 3 weeks, read-out: post-emergence activity against ECHCG in %
Experimental: (§3) Seeds of mono- and dicotyledonous weed plants were placed in plastic pots in sandy loam soil (doubly sown with in each case one species of mono- or dicotyledonous weed plants per pot), covered with soil and cultivated in a greenhouse under controlled growth conditions. 2 to 3 weeks after sowing, the test plants were treated at the one-leaf stage. The compounds of the invention, formulated in the form of wettable powders (WP) or as emulsion concentrates (EC), were applied onto the green parts of the plants as aqueous suspension or emulsion with addition of 0.5% additive at a water application rate of 600 liters per hectare (converted). After the test plants had been kept in the greenhouse under optimum growth conditions for about 3 weeks, the activity of the preparations was rated visually in comparison to untreated controls. For example, 100% activity=the plants have died, 0% activity=like control plants.

Lolium rigidum (LOLRI) [14] = test: Herbicidal post-emergence action, section B (Table B5); conditions: Lolium rigidum, post-emergence, 504 h; application rate 1280 g/ha; visual rating about 3 weeks after treatment vs untreated controls; read-out: post-emergence activity against LOLRI in %
Experimental: as §3

Poa annua (POAAN) [15] = test: Herbicidal pre-emergence action, section A (Table A7); conditions: Poa annua, pre-emergence, 504 h, visual grading after ca. 3 weeks vs untreated controls, read-out: pre-emergence activity against POAAN in %
Summary of the method: as §1

[16] = system: Digitaria sanguinalis (DIGSA); test: Herbicidal pre-emergence action, section A (Table A12); conditions: Digitaria sanguinalis, 504 h, application rate 1280 g/ha, read-out: pre-emergence activity against DIGSA in %
Summary of the method: as §1

[17] = system: Abutilon theophrasti (ABUTH); test: Herbicidal post-emergence action, section B (Table B1); conditions: Abutilon theophrasti, 504 h, application rate 1280 g/ha, rated visually after about 3 weeks, read-out: post-emergence activity against ABUTH in %
Experimental: as §3

[18] = system: Digitaria sanguinalis (DIGSA); test: Herbicidal post-emergence action, section B (Table B12); conditions: Digitaria sanguinalis, post-emergence, 504 h; application rate 1280 g/ha; visual rating about 3 weeks after treatment vs untreated controls; read-out: post-emergence activity against DIGSA in %
Experimental: as §3

Setaria viridis (SETVI) [19] = test: Herbicidal post-emergence action, section B (Table B8); conditions: Setaria viridis, post-emergence, 504 h; application rate 320 g/ha; visual rating about 3 weeks after treatment vs untreated controls; read-out: post-emergence activity against SETVI in %
Experimental: as §3

[20] = system: Amaranthus retroflexus (AMARE); test: Herbicidal post-emergence action, section B (Table B11); conditions: Amaranthus retroflexus, post-emergence, 504 h; application rate 320 g/ha; visual rating about 3 weeks after treatment vs untreated controls; read-out: post-emergence activity against AMARE in %
Summary of the method: as §2

Cc1cscc1-c1nc2c(cc1C)[S+]([O-])CN2 (centres unmarked) [Example I-023]
pest or weed control at 1280 g/ha [1]: 90% | pest or weed control at 320 g/ha (Veronica persica (VERPE) [2]): 90% | pest or weed control at 1280 g/ha (Stellaria media (STEME) [3]): 90% | pest or weed control at 1280 g/ha (Lolium rigidum (LOLRI) [4]; application rate 1280 g/ha): 100% | pest or weed control at 1280 g/ha (Setaria viridis (SETVI) [5]; application rate 1280 g/ha): 100% | pest or weed control at 1280 g/ha ([6]; application rate 1280 g/ha): 90% | pest or weed control at 1280 g/ha (Kochia scoparia (KCHSC) [7]): 90% | pest or weed control at 1280 g/ha (Veronica persica (VERPE) [8]; application rate 1280 g/ha): 90% | pest or weed control at 320 g/ha (Poa annua (POAAN) [9]; application rate 320 g/ha): 90% | pest or weed control at 1280 g/ha ([10]; application rate 1280 g/ha): 100% | pest or weed control at 1280 g/ha (Kochia scoparia (KCHSC) [11]; application rate 1280 g/ha): 90% | pest or weed control at 320 g/ha (Stellaria media (STEME) [12]): 90% | pest or weed control at 1280 g/ha ([13]; application rate 1280 g/ha): 90% | pest or weed control at 1280 g/ha (Lolium rigidum (LOLRI) [14]): 90% | pest or weed control at 1280 g/ha (Poa annua (POAAN) [15]; application rate 1280 g/ha): 100% | pest or weed control at 1280 g/ha [16]: 100%

Cc1cc2c(nc1-c1ccccc1Cl)N(S(C)(=O)=O)CS2 [Example I-142, 5-(2-chlorophenyl)-6-methyl-3-(methylsulfonyl)-2,3-dihydro[1,3]thiazolo[4,5-b]pyridine]
pest or weed control at 1280 g/ha [1]: 90% | pest or weed control at 1280 g/ha [17]: 90% | pest or weed control at 320 g/ha (Veronica persica (VERPE) [2]): 90% | pest or weed control at 1280 g/ha (Stellaria media (STEME) [3]): 90% | pest or weed control at 320 g/ha (Lolium rigidum (LOLRI) [4]; application rate 320 g/ha): 100% | pest or weed control at 320 g/ha (Setaria viridis (SETVI) [5]; application rate 320 g/ha): 100% | pest or weed control at 320 g/ha ([6]; application rate 320 g/ha): 90% | pest or weed control at 1280 g/ha [18]: 90% | pest or weed control at 320 g/ha (Veronica persica (VERPE) [8]; application rate 320 g/ha): 90% | pest or weed control at 1280 g/ha (Poa annua (POAAN) [9]; application rate 1280 g/ha): 90% | pest or weed control at 320 g/ha ([10]; application rate 320 g/ha): 100% | pest or weed control at 320 g/ha (Kochia scoparia (KCHSC) [11]; application rate 320 g/ha): 90% | pest or weed control at 320 g/ha (Stellaria media (STEME) [12]): 90% | pest or weed control at 320 g/ha ([13]; application rate 320 g/ha): 90% | pest or weed control at 1280 g/ha (Lolium rigidum (LOLRI) [14]): 90% | pest or weed control at 320 g/ha (Setaria viridis (SETVI) [19]): 90% | pest or weed control at 320 g/ha [20]: 90% | pest or weed control at 320 g/ha (Poa annua (POAAN) [15]; application rate 320 g/ha): 100% | pest or weed control at 1280 g/ha [16]: 100%
